Data as given in patent US10793525B2, “13-cis-RAMBA retinamides that degrade MNKs for treating cancer” (UNIVERSITY OF MARYLAND, BALTIMORE, priority 2014, dated 2020).
pIC50: −log10 of the molar value. Read-outs that look alike come from different tables or passages of the source.

Legend:
[1] = system: MDA-MB-468 human breast cancer cells; conditions: MDA-MB-468 cells; previously reported in Ramalingam S, et al.; read-out: GI50s MDA-MB-468; cited from earlier work
[2] = system: CWR22Rv1 human prostate carcinoma cells; conditions: previously reported in Ramamurthy V et al., read-out: GI50s CWR22Rv1; cited from earlier work
[3] = system: PC-3 human prostate carcinoma cells; conditions: PC-3 cells; previously reported in Ramamurthy V et al.; read-out: GI50s PC-3; cited from earlier work
[4] = system: SKBR-3 human breast cancer cells; conditions: SKBR-3 cells; previously reported in Ramalingam S, et al.; read-out: GI50s SKBR-3; cited from earlier work
[5] = system: MDA-MB-231 human breast cancer cells; conditions: MDA-MB-231 cells; previously reported in Ramalingam S, et al.; read-out: GI50s MDA-MB-231; cited from earlier work
[6] = system: LNCaP human prostate carcinoma cells; conditions: previously reported in Ramamurthy V et al., read-out: GI50s LNCaP; cited from earlier work
[7] = system: SKBR-3 human breast cancer cells; assay: MTT cell proliferation assay, SKBR-3; assay type: cell-based; conditions: SK-BR-3, SKBR-3 cells, SEM < 10%, read-out: GI50s SKBR-3
Excerpt: (§1) MCF-7, MDA-MB-231, MDA-MB-468 and SKBR-3 human breast cancer cells and LNCaP, PC-3, and CWR22Rv1 human prostate carcinoma cells (American Type Culture Collection, Manassas, Va., USA) were maintained in RPMI 1640 media (Gibco-Life Technologies, Grand Island, N.Y., USA) supplemented with 10% fetal bovine serum and 1% penicillin/streptomycin. Western blotting was done as mentioned previously,^8, 13b using the following antibodies: AR, Bad, Bax, Bcl-2, eIF4E, Mnk1, Mnk-2, N-cadherin, PARP, peIF4E^ser209 purchased from Cell Signaling Technology, Danvers, Mass., USA. Anti-Mnk2 was purchased from Sigma-Aldrich and normal rabbit IgG, cyclin D1 was from Santa Cruz Biotechnology, CA, USA.
(§2) Cells were plated (2500 cells/well) in 96 well plates and treated with or without specified compounds as described previously.^8a, 12b
(§3) The clinically relevant retinoids, ATRA and 4-HPR and the Mnk inhibitor, cercosporamide were used as comparators in the assays.

[8] = system: MDA-MB-231 human breast cancer cells; assay: MTT cell proliferation assay, MDA-MB-231; assay type: cell-based; conditions: MDA-MB-231 cells, SEM < 10%, read-out: GI50s MDA-MB-231
Excerpt: as §1, §2, §3

[9] = system: CWR22Rv1 human prostate carcinoma cells; assay: MTT cell proliferation assay, CWR22Rv1; assay type: cell-based; conditions: SEM < 10%, read-out: GI50s CWR22Rv1
Excerpt: as §1, §2, §3
(§4) The PC-3 cell line was the least sensitive to all the compounds tested.

[10] = system: LNCaP human prostate carcinoma cells; assay: MTT cell proliferation assay, LNCaP; assay type: cell-based; conditions: SEM < 10%, read-out: GI50s LNCaP
Excerpt: as §1, §2, §3, §4

[11] = system: Mnk1 and 2, peIF4E, eIF4E and cPARP; assay: Western blot of lysates from MCF-7, MDA-MB-231 and MDA-MB-468 cells; assay type: cell-based, human; conditions: MCF-7, MDA-MB-231, MDA-MB-468 cells, 24 hours
Excerpt: as §1
As we previously reported, the anti-proliferative effects of the 1st generation MNKDAs in BC cells was due to degradation of Mnk1/2 with subsequent depletion of peIF4E and induction of apoptosis.^8a To determine if these compounds modulate Mnk1/2 and related oncogenic proteins, the inventors performed western blot of lysates from MCF-7, MDA-MB-231 and MDA-MB-468 human breast cancer cells treated with Compounds 16, 20, and 22, or with vehicle (DMSO, negative control), or Compound 6 (positive control). Equal protein concentrations from MCF-7 (FIG. 3A), MDA-MB-231 (FIG. 3B) and MDA-MB-468 (FIG. 3C) cells treated for 24 hours with Compounds 16, 20 and 22 at the various concentrations as indicated and Compound 6 (20 μmol/L) were separated by SDS-PAGE and western blots probed with antibodies to Mnk1 and 2, peIF4E, eIF4E and cPARP. Vehicle treated cells were included as control and all blots were reprobed for GAPDH for loading control.

[12] = system: PC-3 human prostate carcinoma cells; assay: MTT cell proliferation assay, PC-3; assay type: cell-based; conditions: PC-3 cells, SEM < 10%, read-out: GI50s PC-3
Excerpt: as §1, §2, §3, §4

PC-3 cells = assay: Wound-healing assay, PC-3 cell migration; assay type: cell-based, human; conditions: 5 μM, 24 hours
Procedure: (§5) Wound healing assay and matrigel invasion assay were also conducted as described previously using highly metastatic PC-3 cells following treatment with 5 μM of RRs for 24 h.^8a,26
(§6) Based on previous studies with closely related compound,^8 the inhibitory effects of Compounds 16, 20 and 22 on cell migration were evaluated, using the human metastatic PC cell line, PC-3 by wound-healing assay. PC-3 cells (5×10^5 cells/well) were seeded on Boyden chamber, grown to confluence and scratches made at experimental tome zero. The cells were treated with indicated compounds (5 μM each) for 24 hours. Representative photomicrographs of initial and final wounds are shown at 100× magnification. […] At 24 hours after cell monolayers were wounded, control cells had completely filled in the scratched area.

[13] = system: fAR, Mnk1/2, peIF4E, cyclin D1 and cleaved PARP; assay: Western blot of lysates from LNCaP cells; assay type: cell-based, human; conditions: 0.6-20 μM, 24 hours
Excerpt: as §1
Equal protein concentrations from LNCaP cells treated with Compounds 16, 20 and 22 at different concentrations (0.6-20 μM) for 24 hours were separated by SDS-PAGE and western blots probed with antibodies to fAR, Mnk1/2, peIF4E, cyclin D1 and cleaved PARP. Vehicle treated cells were included as a control and all blots were reprobed for β-actin for loading control.

[14] = system: MDA-MB-468 human breast cancer cells; assay: MTT cell proliferation assay, MDA-MB-468; assay type: cell-based; conditions: MDA-MB-468 cells, SEM < 10%, read-out: GI50s MDA-MB-468
Excerpt: as §1, §2, §3

[15] = system: MCF-7, MDA-MB-231, MDA-MB-468 and SKBR-3 human breast cancer cells; assay: MTT cell proliferation assay, four breast cancer cell lines together; assay type: cell-based; conditions: range across the four BC cell lines, read-out: GI50s, range over the BC cell lines
Excerpt: as §1, §2, §3

[16] = system: MCF-7 human breast cancer cells; assay: MTT cell proliferation assay, MCF-7; assay type: cell-based; conditions: Homo sapiens, MCF7; MCF-7 cells, MTT, SEM < 10%; read-out: GI50s MCF-7
Excerpt: as §1, §2, §3

MDA-MB-231 cells = assay: Wound-healing assay, MDA-MB-231 cell migration; assay type: cell-based, human; conditions: 5 μM, 24 h
Procedure: as §5
as §6, with “BC” for “PC”, “MDA-MB-231” for “PC-3”, “h.” for “hours.”

[17] = system: MDA-MB-231 xenograft tumors; assay: MDA-MB-231 anti-tumor efficacy study (xenograft); assay type: in vivo
Procedure: All animal studies were performed according to the guidelines and approval of the Animal Care Committee of the University of Maryland School of Medicine, Baltimore (UMB). Female Athymic Nude mice or male SCID (Charles Rivers Laboratories or UMB facilities) at 4-6 weeks of age were maintained in a pathogen-free environment. MDA-MB-231 (10×10^6) cells were subcutaneously implanted into Athymic Nude mice and CWR22Rv1 (1×10^6) cells into male SCID mice. Mice bearing established tumors (˜100 mm^3) were randomized into treatment groups of 6 and dosed with vehicle (40% β-cyclodexdrin in ddH2O), or compounds 20 and 22 (i.p., formulated in 40% β-cyclodexdrin in ddH2O, once daily, 5 days a week for 28 days).
The National Cancer Institute (NCI) criteria^23 were used to determine tumor growth efficacy of our compounds. Thus, percent test or treatment/control (% T/C), defined as the ratio of the median tumor volume for the treated group versus control group, was calculated as % T/C=[(median tumor volume of treated group at day 28)/(median tumor volume of control group at day 28)]×100.
Indeed, the two compounds were equipotent (FIG. 9A). […] Representative photos of the tumor-bearing mice in the control and the two treatment groups at termination of experiment (day 28) are presented in FIG. 9B.

[18] = system: Mnk-1, peIF4E and their downstream targets; assay: Molecular analysis of MDA-MB-231 tumors; assay type: in vivo; conditions: MDA-MB-231 tumors from treated mice
Excerpt: To assess their in vivo mode of action, we evaluated the effects of Compounds 20 and 22 on Mnk-1, peIF4E and their downstream targets.

[19] = MDA-MB-231 xenograft mice, i.p. 20 mg/kg 5×/week over 28 days

| Structure (SMILES) | pIC50 [1] | pIC50 [4] | pIC50 [5] | pIC50 [7] | pIC50 [8] | pIC50 [9] | pIC50 [10] | expression of total eIF4E [11] | expressions of Mnk1, Mnk2 and peIF4E [11] | formation of c-PARP (apoptosis) [11] | pIC50 [12] | migration of PC-3 cells (PC-3 cells) | cleaved PARP (c-PARP) [13] | cyclin D1 [13] | expression of total eIF4E [13] | expressions of fAR, Mnk1 and Mnk2 [13] | pIC50 [14] | pIC50 [16] | also measured |
| --- | --- | --- | --- | --- | --- | --- | --- | --- | --- | --- | --- | --- | --- | --- | --- | --- | --- | --- | --- |
| CC1=C(/C=C/C(C)=C/C=C/C(C)=C/C(=O)O)C(C)(C)CCC1 [ATRA, all-trans retinoic acid] | 4.85 | 4.64 | 4.85 |  |  |  |  |  |  |  |  |  |  |  |  |  |  |  | pIC50 [2]: 4.60; pIC50 [3]: 4.44; pIC50 [6]: 4.32 |
| CC(=O)C1=C(O)C=C2Oc3c(C(N)=O)c(O)cc(O)c3[C@]2(C)C1=O [Cerco., cercosporamide] | 4.32 | 4.58 | 4.36 |  |  |  |  |  |  |  |  |  |  |  |  |  |  |  |  |
| CC1=C(/C=C/C(C)=C/C=C/C(C)=C\C(=O)Nc2ccccc2)C(C)(C)CCC1n1ccnc1 (centres unmarked) [Compound 16, (2Z,4E,6E,8E)-9-(3-(1H-imidazol-1-yl)-2,6,6-trimethylcyclohex-1-en-1-yl)-3,7-dimethyl-N-phenylnona-2,4,6,8-tetraenamide] |  |  |  | 5.76 | 5.76 | 5.89 | 5.57 | no noticeable effects | significantly and dose-dependently, reduced | dose-dependent formation of c-PARP | 5.05 | significantly inhibited migration | induced cleaved PARP | significant depletion | no noticeable effects | significantly and in a dose-dependent fashion, reduced | 5.60 | 5.72 | pIC50 [15]: 5.60 to 5.76 |
| CC1=C(/C=C/C(C)=C/C=C/C(C)=C\C(=O)NCc2ccc(O)cc2)C(C)(C)CCC1n1ccnc1 (centres unmarked) [Compound 22, (2Z,4E,6E,8E)-9-(3-(1H-imidazol-1-yl)-2,6,6-trimethylcyclohex-1-en-1-yl)-N-(4-hydroxybenzyl)-3,7-dimethylnona-2,4,6,8-tetraenamide] |  |  |  | 5.61 | 5.65 | 5.73 | 5.77 | no noticeable effects | significantly and dose-dependently, reduced | dose-dependent formation of c-PARP | 5.45 | significantly inhibited migration | induced cleaved PARP | significant depletion | no noticeable effects | significantly and in a dose-dependent fashion, reduced | 5.57 | 6.80 | migration of MDA-MB-231 cells (MDA-MB-231 cells): significantly inhibited migration; body weight [17, 19]: did not lose body weight; signs of toxicity / adverse events [17, 19]: no apparent adverse events; suppression of tumor growth ([17]; MDA-MB-231 xenografts, i.p. 20 mg/kg 5×/week over 28 days): 85.4%; % T/C (treated/control median tumor volume) ([17]; MDA-MB-231 xenografts, i.p. 20 mg/kg 5×/week, day 28): 14.6%; Mnk1/2, peIF4E, cyclin D1 and Bcl-2 in tumors [18]: depletion; pro-apoptotic proteins Bad and Bax in tumors [18]: up-regulation |
